By Kd is commonly meant the concentration at which binding is half-saturated.

Values joined by “and” are separate entries in the source; they are usually repeats but may differ in a detail not shown here. Equal entries are not always repeated.

Data on 6 compounds can be found in paper PMC5872125, “Fragment-Based Discovery of Inhibitors of the Bacterial DnaG-SSB Interaction” (Antibiotics, 2018).

In test [1] the target is T1, DnaGC (C-terminal helicase-binding domain of DnaG primase) (Escherichia coli, UniProt P0ABS5).
T1 construct: made in house
T1 sequence (P0ABS5 434-581): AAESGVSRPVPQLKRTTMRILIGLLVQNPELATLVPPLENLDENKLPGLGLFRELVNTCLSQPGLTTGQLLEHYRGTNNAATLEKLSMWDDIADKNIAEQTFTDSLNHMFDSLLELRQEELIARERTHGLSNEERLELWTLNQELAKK
The test can be described thus: 15N–1H HSQC NMR titration (binding affinity). The conditions noted are these: 15N–1H HSQC titration, change in chemical shift with incremental additions of ligand; roughly estimated. As for the experimental part: The final volume of each sample was 150 μL. The recording time was 30 min for each ^15N–^1H HSQC experiment. A standard pulse sequence was used for data acquisition. Spectra were recorded at 298 K with a Bruker Avance 600 MHz NMR spectrometer equipped with cryoprobe and auto-sample changer. […] The spectra were processed with TOPSPIN 3.1 and analyzed using CCPN [43]. Weighted CSP values were calculated as
Binding affinities were estimated by incremental titration of fragments into protein, with recording of a ^15N–^1H HSQC experiment at each concentration point. Compound solubilities were tested to determine the highest concentrations of ligands used in assays. Equilibrium dissociation constants from NMR titration data were derived using the “single site-specific binding with ligand depletion” model in GraphPad Prism v.6.0 (La Jolla, CA, USA).

Test [2] addresses T2, DnaGC (Escherichia coli, UniProt P0ABS5).
T2 construct: made in house
The test can be described thus: 1D 19F-NMR binding. The note with it: compound 1 mM, 50 μM DnaGC (20-fold excess). From the text:
The observed NMR peak shifts were consistent with the docked orientation. The negatively charged tetrazole is predicted to form favorable electrostatic and hydrogen bond interactions with the side chains of K447 and R452. The methyl groups of L446, M451, L455, L484 T515 and L519 form a hydrophobic pocket accommodating two aromatic rings of the compound. One of the fluorine atoms is about 3 Å from the amide group of G481 while the second at the para-position of the phenoxy group points out of the pocket toward K518. In the docked conformation, these fluorine atoms are involved in hydrogen bond formation with these two residues (Figure 4). To test the docked orientation of 5, 1D ^19F-NMR was carried out using a 20-fold excess of compound over protein.
(§1) 1D ^19F-NMR spectra were recorded on a Bruker Avance III 400 MHz NMR spectrometer (Bruker, Karlsruhe, Germany) equipped with the two-channel BBO probe with z-gradient at 300 K. All ^19F-NMR spectra were recorded with 256 scans for fragment and complex samples sequentially. Fragments dissolved in ^2H6-DMSO were diluted in HSQC buffer to give final fragment and protein concentrations of 1 mM and 50 μM, respectively.

Test [3] deals with E. coli χ (Escherichia coli, UniProt P28905). The experiment in a line: 1D 19F-NMR binding. The conditions noted are these: in the presence of E. coli χ. The protocol:
The fragments identified here and the first generation of optimized leads for DnaGC were tested against other SSB-Ct binding partners including E. coli PriA, E. coli RNAse HI, and the χ subunit of E. coli and Acinetobacter baumannii DNA polymerase III. STD-NMR was used to assess binding.
as §1

T2 sequence (P0ABS5 434-581): as above
Chain of E. coli χ (P28905 whole entry, the tested form may be a part): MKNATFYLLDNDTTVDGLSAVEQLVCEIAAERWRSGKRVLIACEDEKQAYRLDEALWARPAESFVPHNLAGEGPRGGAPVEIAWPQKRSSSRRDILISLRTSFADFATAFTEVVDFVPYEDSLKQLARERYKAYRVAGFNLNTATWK

`O=C(O)CCSc1ccccc1` [Fragment 3]: the Kd in test [1] is about 2800 µM.

With `Fc1ccc(Oc2cccc(F)c2-c2nnn[nH]2)cc1` [Compound 5, 5-[2-fluoro-6-(4-fluorphenoxy)phenyl]tetrazol-1-ide], in test [1], the dissociation constant (Kd) is 1300 µM and ~1300 µM. Moreover, the “binding by 1D 19F-NMR” value in test [2] is recorded as “confirming binding”.

`c1ccc(Oc2cccc(-c3nn[nH]n3)c2)cc1` [Compound 6]: the Kd in test [1] was 1200 µM and ~1200 µM.

As for `O=C(O)CSc1c[nH]c2ccccc12` [Fragment 2], the Kd in test [1] is about 3100 µM.

For the compound `O=C(O)CN1C(=O)c2cccc3cccc1c23` [Fragment 1], the Kd in test [1] is about 1100 µM.

With `Fc1ccc(-c2nnn[nH]2)cc1` [Fragment 4], in test [3], the “binding by 1D 19F-NMR” value is reported as “demonstrated binding”. In addition, the Kd in test [1] was about 3200 µM.
